# Data as given in the kinase profiling compilation of Christmann-Franck et al. (2016).
# Where “and” joins values, the source holds several entries; their conditions need not be identical. Identical values can stand only once.
# How the values were obtained:
# Experiment in all cases: radiometric filter-binding kinase assay, Kinase HotSpot
# Conditions in all cases: compound 0.5 µM; ATP 10 µM
# [1] = target: FYN (human) (UniProt P06241)
# [2] = target: CSNK1E (human) (UniProt P49674)
# [3] = target: PHKG2 (human) (UniProt P15735)
# [4] = target: MST1R (human) (UniProt Q04912)
# [5] = target: MLTK (human) (UniProt Q9NYL2)
# [6] = target: STK11 (human) (UniProt Q15831)
# [7] = target: MAP2K1 (human) (UniProt Q02750)
# [8] = target: MAP3K8 (human) (UniProt P41279)
# [9] = target: PRKCB1 (human) (UniProt P05771)
# [10] = target: LCK (human) (UniProt P06239)
# [11] = target: CSNK2A1 (human) (UniProt P68400)
# [12] = target: AURKC (human) (UniProt Q9UQB9)
# [13] = target: MINK1 (human) (UniProt Q8N4C8)
# [14] = target: PAK6 (human) (UniProt Q9NQU5)
# [15] = target: CDK4 CCND1 (human) (UniProt P24385+P11802)
# [16] = target: AURKA (human) (UniProt O14965)
# [17] = target: CDK2 CCNA2 (human) (UniProt P24941+P20248)
# [18] = target: JAK3 JH1 JH2 (human) (UniProt P52333)
# [19] = target: MAP4K4 (human) (UniProt O95819)
# [20] = target: MAP4K5 (human) (UniProt Q9Y4K4)
# [21] = target: CAMK1G (human) (UniProt Q96NX5)
# [22] = target: EPHB2 (human) (UniProt P29323)
# [23] = target: CDK4 CCND3 (human) (UniProt P30281+P11802)
# [24] = target: LYN (human) (UniProt P07948)
# [25] = target: EPHB3 (human) (UniProt P54753)
# [26] = target: PRKCA (human) (UniProt P17252)
# [27] = target: IKBKE (human) (UniProt Q14164)
# [28] = target: HCK (human) (UniProt P08631)
# [29] = target: EGFR (human) (UniProt P00533)
# [30] = target: STK4 (human) (UniProt Q13043)
# [31] = target: MARK1 (human) (UniProt Q9P0L2)
# [32] = target: CAMKK2 (human) (UniProt Q96RR4)
# [33] = target: IRAK4 (human) (UniProt Q9NWZ3)
# [34] = target: DSTYK (human) (UniProt Q6XUX3)
# [35] = target: NEK3 (human) (UniProt P51956)
# [36] = target: BRAF (human) (UniProt P15056)
# Sequence of MLTK (human) (Q9NYL2 whole entry, looked up): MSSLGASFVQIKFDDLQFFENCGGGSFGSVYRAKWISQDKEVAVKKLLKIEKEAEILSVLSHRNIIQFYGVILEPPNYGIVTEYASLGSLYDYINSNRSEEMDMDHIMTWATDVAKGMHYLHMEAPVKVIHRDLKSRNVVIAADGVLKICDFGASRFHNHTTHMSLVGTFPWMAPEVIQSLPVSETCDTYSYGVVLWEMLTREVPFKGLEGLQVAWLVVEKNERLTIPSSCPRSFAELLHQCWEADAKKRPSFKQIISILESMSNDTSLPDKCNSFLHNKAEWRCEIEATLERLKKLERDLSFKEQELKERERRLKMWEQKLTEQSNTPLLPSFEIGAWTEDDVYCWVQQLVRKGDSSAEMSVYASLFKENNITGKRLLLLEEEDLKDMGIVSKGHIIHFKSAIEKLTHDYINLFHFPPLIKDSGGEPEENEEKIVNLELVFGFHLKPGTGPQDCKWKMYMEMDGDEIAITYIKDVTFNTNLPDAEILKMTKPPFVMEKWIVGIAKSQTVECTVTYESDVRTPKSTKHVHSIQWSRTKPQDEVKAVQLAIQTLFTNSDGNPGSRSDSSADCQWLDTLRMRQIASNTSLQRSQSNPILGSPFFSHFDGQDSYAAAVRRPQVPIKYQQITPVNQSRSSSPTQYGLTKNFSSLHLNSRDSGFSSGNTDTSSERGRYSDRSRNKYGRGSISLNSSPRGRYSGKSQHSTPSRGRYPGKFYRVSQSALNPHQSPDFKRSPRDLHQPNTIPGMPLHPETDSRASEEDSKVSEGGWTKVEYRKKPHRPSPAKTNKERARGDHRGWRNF
# Sequence of CDK4 CCND3 (human) (P11802 whole entry, looked up): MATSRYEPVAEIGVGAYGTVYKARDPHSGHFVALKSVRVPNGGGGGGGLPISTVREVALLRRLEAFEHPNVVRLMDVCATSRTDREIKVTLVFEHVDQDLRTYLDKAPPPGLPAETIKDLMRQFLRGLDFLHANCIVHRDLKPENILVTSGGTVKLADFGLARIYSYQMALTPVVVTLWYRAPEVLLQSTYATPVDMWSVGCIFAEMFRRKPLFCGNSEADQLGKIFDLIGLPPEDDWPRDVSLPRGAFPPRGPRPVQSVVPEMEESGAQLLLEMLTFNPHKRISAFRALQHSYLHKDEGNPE
# Sequence of CDK4 CCND3 (human) (P30281 whole entry, looked up): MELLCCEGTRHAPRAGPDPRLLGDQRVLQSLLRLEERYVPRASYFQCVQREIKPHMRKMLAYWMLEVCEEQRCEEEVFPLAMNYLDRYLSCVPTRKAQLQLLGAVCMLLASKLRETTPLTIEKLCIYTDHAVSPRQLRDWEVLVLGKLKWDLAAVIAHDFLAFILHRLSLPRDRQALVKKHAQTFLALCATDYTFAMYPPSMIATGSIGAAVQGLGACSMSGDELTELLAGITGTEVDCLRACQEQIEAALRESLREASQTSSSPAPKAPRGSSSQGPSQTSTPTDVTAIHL
# Sequence of CDK4 CCND1 (human) (P11802 whole entry, looked up): as the sequence (P11802 whole entry, looked up) above
# Sequence of CDK4 CCND1 (human) (P24385 whole entry, looked up): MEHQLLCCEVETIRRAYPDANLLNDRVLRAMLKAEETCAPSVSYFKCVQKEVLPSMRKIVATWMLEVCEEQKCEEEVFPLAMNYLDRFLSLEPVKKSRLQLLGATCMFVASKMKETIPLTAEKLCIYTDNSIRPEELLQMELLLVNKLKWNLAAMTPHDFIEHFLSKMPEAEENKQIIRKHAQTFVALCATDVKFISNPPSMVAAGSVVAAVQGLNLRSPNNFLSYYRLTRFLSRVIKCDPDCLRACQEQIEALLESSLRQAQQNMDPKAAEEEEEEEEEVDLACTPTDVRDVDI
# Sequence of IRAK4 (human) (Q9NWZ3 whole entry, looked up): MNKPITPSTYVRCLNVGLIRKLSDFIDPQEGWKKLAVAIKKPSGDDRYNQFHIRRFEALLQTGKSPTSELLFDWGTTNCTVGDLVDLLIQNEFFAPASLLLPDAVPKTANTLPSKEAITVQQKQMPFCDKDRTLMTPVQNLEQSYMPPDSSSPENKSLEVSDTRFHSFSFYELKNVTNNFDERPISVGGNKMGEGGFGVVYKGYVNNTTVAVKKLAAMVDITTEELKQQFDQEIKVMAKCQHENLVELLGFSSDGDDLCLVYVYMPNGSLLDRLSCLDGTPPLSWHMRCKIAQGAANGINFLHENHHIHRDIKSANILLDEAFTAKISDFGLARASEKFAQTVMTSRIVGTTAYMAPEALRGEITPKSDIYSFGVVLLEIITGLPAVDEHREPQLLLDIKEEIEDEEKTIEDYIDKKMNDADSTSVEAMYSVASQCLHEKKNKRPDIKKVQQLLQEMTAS
# Sequence of CDK2 CCNA2 (human) (P20248 whole entry, looked up, other chains not shown): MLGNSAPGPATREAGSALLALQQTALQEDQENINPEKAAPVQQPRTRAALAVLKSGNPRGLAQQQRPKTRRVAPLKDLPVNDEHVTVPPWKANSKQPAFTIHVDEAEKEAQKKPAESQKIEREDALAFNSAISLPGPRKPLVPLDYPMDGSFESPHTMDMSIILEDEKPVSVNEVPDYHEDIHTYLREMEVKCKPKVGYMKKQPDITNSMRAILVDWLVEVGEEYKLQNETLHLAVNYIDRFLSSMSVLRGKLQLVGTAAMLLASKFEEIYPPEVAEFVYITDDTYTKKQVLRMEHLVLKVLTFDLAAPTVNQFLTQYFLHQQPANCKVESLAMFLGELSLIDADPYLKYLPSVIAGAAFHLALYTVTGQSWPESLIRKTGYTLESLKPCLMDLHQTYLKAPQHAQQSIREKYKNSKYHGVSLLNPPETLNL
# Sequence of EPHB3 (human) (P54753 whole entry, looked up): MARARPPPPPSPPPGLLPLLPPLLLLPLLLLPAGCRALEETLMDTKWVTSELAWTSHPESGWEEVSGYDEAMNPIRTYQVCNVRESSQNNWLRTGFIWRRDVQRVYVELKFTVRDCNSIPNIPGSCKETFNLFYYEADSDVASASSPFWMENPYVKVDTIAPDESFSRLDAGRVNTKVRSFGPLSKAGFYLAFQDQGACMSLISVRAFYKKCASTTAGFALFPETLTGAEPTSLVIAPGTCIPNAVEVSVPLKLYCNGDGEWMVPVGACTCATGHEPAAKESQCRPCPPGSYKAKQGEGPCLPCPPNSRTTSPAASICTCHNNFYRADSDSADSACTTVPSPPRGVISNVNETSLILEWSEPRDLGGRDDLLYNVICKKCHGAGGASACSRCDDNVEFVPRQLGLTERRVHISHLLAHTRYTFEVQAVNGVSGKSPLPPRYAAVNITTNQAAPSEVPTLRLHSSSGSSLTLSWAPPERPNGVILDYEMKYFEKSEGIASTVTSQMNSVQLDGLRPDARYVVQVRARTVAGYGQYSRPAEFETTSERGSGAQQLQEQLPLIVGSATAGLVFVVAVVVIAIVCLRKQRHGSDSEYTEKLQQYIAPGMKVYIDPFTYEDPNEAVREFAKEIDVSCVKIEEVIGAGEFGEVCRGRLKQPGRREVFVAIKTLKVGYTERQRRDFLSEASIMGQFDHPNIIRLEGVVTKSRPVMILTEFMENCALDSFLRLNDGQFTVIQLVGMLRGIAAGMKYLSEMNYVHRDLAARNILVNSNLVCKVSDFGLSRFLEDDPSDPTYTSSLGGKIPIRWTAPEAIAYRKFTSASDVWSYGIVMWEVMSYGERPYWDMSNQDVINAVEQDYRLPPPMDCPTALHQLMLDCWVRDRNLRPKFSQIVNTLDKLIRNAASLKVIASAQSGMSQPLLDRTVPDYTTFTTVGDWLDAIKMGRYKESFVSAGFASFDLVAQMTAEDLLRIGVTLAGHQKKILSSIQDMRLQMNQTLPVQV
# Sequence of CAMKK2 (human) (Q96RR4 whole entry, looked up): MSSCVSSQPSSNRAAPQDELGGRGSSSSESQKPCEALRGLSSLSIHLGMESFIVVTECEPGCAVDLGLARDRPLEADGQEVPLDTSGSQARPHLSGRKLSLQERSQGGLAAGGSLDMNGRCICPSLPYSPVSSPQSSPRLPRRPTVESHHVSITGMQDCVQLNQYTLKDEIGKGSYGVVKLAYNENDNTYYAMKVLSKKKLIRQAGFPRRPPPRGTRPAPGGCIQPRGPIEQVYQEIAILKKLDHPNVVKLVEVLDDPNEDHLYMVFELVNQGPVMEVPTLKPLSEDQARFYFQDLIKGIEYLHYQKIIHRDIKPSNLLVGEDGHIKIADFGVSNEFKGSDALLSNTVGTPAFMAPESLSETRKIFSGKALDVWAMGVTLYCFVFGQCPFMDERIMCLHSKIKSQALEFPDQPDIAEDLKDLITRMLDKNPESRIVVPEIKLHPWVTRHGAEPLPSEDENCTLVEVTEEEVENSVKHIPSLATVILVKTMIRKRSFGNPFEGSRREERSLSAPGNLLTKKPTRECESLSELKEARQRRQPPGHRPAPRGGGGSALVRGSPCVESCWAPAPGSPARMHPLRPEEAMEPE
# Sequence of CSNK2A1 (human) (P68400 whole entry, looked up): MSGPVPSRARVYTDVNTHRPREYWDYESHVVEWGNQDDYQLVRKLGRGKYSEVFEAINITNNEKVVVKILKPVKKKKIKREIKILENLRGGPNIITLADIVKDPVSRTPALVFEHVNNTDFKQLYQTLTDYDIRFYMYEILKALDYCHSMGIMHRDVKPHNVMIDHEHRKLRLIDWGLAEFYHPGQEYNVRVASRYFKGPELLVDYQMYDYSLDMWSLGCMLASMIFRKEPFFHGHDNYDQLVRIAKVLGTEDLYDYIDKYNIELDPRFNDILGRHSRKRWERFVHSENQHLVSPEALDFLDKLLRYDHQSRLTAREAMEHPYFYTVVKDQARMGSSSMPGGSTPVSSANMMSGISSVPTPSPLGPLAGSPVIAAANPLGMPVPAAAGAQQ
# Sequence of AURKC (human) (Q9UQB9 whole entry, looked up): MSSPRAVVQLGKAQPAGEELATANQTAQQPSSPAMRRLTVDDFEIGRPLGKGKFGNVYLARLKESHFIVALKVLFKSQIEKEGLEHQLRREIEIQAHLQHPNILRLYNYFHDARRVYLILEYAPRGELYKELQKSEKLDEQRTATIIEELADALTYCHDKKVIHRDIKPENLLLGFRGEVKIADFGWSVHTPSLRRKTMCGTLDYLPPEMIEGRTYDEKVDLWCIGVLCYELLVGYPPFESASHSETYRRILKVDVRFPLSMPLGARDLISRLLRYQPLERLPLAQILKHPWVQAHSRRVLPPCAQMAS
structure (smiles),measurement,setting,value
O=c1c2ccccc2[nH]c(=S)n1CCN1CCC(=C(c2ccc(F)cc2)c2ccc(F)cc2)CC1,residual activity,[1],102%
same,residual activity,[2],100%
same,residual activity,[3],100%
same,residual activity,[4],103%
same,residual activity,[5],98.6%
same,residual activity,[6],107%
same,residual activity,[7],97.5%
same,residual activity,[8],100%
same,residual activity,[9],96%
same,residual activity,[10],99.5%
same,residual activity,[11],97.9%
same,residual activity,[12],99.4%
same,residual activity,[13],94.4%
same,residual activity,[14],98.4%
same,residual activity,[15],99.6%
same,residual activity,[16],100%
same,residual activity,[17],99.9%
same,residual activity,[18],104%
same,residual activity,[19],99.8%
same,residual activity,[20],98.8%
same,residual activity,[21],104%
same,residual activity,[22],92.1%
same,residual activity,[23],99%
same,residual activity,[24],105% and 108%
same,residual activity,[25],92.8%
same,residual activity,[26],73.1%
same,residual activity,[27],101%
same,residual activity,[28],114%
same,residual activity,[29],101%
same,residual activity,[30],103%
same,residual activity,[31],99.7%
same,residual activity,[32],100%
same,residual activity,[33],105%
same,residual activity,[34],86.5%
same,residual activity,[35],94%
COc1cc2ncnc(Nc3ccc(O)c(Br)c3)c2cc1OC,residual activity,[1],80.4%
same,residual activity,[2],85.1%
same,residual activity,[3],98%
same,residual activity,[4],101%
same,residual activity,[5],89%
same,residual activity,[6],103%
same,residual activity,[7],98.2%
same,residual activity,[8],97.6%
same,residual activity,[9],96.6%
same,residual activity,[10],48.9%
same,residual activity,[11],93.7%
same,residual activity,[12],83.7%
same,residual activity,[13],64.4%
same,residual activity,[14],92.8%
same,residual activity,[15],101%
same,residual activity,[16],83.1%
same,residual activity,[17],88.7%
same,residual activity,[18],100%
same,residual activity,[19],59.3%
same,residual activity,[20],28.9%
same,residual activity,[21],103%
same,residual activity,[22],66.1%
same,residual activity,[23],110%
same,residual activity,[24],40.3% and 60%
same,residual activity,[25],88.1%
same,residual activity,[26],109%
same,residual activity,[27],94.6%
same,residual activity,[28],52.2%
same,residual activity,[29],2.22%
same,residual activity,[30],90%
same,residual activity,[31],94.8%
same,residual activity,[32],92.4%
same,residual activity,[33],91.1%
same,residual activity,[34],106%
same,residual activity,[35],88.4%
O=C1NC(=O)c2c1c1c3ccccc3[nH]c1c1[nH]c3cc(Br)ccc3c21,residual activity,[1],95.2%
same,residual activity,[2],82.2%
same,residual activity,[3],94.8%
same,residual activity,[4],101%
same,residual activity,[5],88.8%
same,residual activity,[6],90.2%
same,residual activity,[7],90.3%
same,residual activity,[8],89%
same,residual activity,[9],78.6%
same,residual activity,[10],88.9%
same,residual activity,[11],93.1%
same,residual activity,[12],51.9%
same,residual activity,[13],52.2%
same,residual activity,[14],97.7%
same,residual activity,[15],84.9%
same,residual activity,[16],60.7%
same,residual activity,[17],52.5%
same,residual activity,[18],77%
same,residual activity,[19],29.3%
same,residual activity,[20],42.3%
same,residual activity,[21],94.5%
same,residual activity,[22],99.5%
same,residual activity,[23],21.1%
same,residual activity,[24],92.1% and 93.2%
same,residual activity,[25],91.9%
same,residual activity,[26],72.5%
same,residual activity,[27],83.4%
same,residual activity,[28],92.4%
same,residual activity,[29],100%
same,residual activity,[30],52%
same,residual activity,[31],42%
same,residual activity,[32],48.1%
same,residual activity,[33],76.2%
same,residual activity,[34],65.6%
same,residual activity,[35],88.3%
O=S(=O)(NCCNC/C=C/c1ccc(Br)cc1)c1cccc2cnccc12,residual activity,[1],107%
same,residual activity,[2],107%
same,residual activity,[3],88.8%
same,residual activity,[4],97.4%
same,residual activity,[5],105%
same,residual activity,[6],102%
same,residual activity,[7],90.5%
same,residual activity,[8],99.4%
same,residual activity,[9],88.3%
same,residual activity,[10],103%
same,residual activity,[11],97.8%
same,residual activity,[12],89%
same,residual activity,[13],91.1%
same,residual activity,[14],85.5%
same,residual activity,[15],93.9%
same,residual activity,[16],104%
same,residual activity,[17],105%
same,residual activity,[18],122%
same,residual activity,[19],43.8%
same,residual activity,[20],30.9%
same,residual activity,[21],99.1%
same,residual activity,[22],81.7%
same,residual activity,[23],106%
same,residual activity,[24],101% and 126%
same,residual activity,[25],92.5%
same,residual activity,[26],85.7%
same,residual activity,[27],92.3%
same,residual activity,[28],99.4%
same,residual activity,[36],99.8%
same,residual activity,[30],92.6%
same,residual activity,[31],91.2%
same,residual activity,[32],95.6%
same,residual activity,[33],110%
same,residual activity,[34],91.6%
same,residual activity,[35],94.4%
N/C(=N\N=C/c1ccc(-c2cccc([N+](=O)[O-])c2)o1)N[N+](=O)[O-],residual activity,[1],101%
same,residual activity,[2],91%
same,residual activity,[3],100%
same,residual activity,[4],97.6%
same,residual activity,[5],98%
same,residual activity,[6],98.7%
same,residual activity,[7],105%
same,residual activity,[8],98.8%
same,residual activity,[9],88.9%
same,residual activity,[10],98.6%
same,residual activity,[11],91%
same,residual activity,[12],90.5%
same,residual activity,[13],84.1%
same,residual activity,[14],99%
same,residual activity,[15],96.6%
same,residual activity,[18],103%
same,residual activity,[19],95.6%
same,residual activity,[20],109%
same,residual activity,[21],104%
same,residual activity,[22],84.6%
same,residual activity,[23],103%
same,residual activity,[24],96.3% and 99.4%
same,residual activity,[25],91.7%
same,residual activity,[26],115%
same,residual activity,[27],101%
same,residual activity,[28],114%
same,residual activity,[29],100%
same,residual activity,[30],96.5%
same,residual activity,[31],90.7%
same,residual activity,[32],114%
same,residual activity,[33],87.3%
same,residual activity,[34],95.4%
same,residual activity,[35],101%
CCCCc1c(-c2ccc(O)cc2)[nH]c2nccnc12,residual activity,[1],62.1%
same,residual activity,[2],102%
same,residual activity,[3],100%
same,residual activity,[4],101%
same,residual activity,[5],71%
same,residual activity,[6],33.5%
same,residual activity,[7],94.8%
same,residual activity,[8],111%
same,residual activity,[9],95.5%
same,residual activity,[10],86.8%
same,residual activity,[11],95.9%
same,residual activity,[12],44.9%
same,residual activity,[13],82%
same,residual activity,[14],94.3%
same,residual activity,[15],66.4%
same,residual activity,[16],24.5%
same,residual activity,[17],22.4%
same,residual activity,[18],92.2%
same,residual activity,[19],60.9%
same,residual activity,[20],65.3%
same,residual activity,[21],104%
same,residual activity,[22],92.3%
same,residual activity,[23],71%
same,residual activity,[24],106% and 87.3%
same,residual activity,[26],83.7%
same,residual activity,[27],88.3%
same,residual activity,[28],91.1%
same,residual activity,[36],99.3%
same,residual activity,[30],78.3%
same,residual activity,[31],91.9%
same,residual activity,[32],91.7%
same,residual activity,[33],159%
same,residual activity,[34],88.9%
same,residual activity,[35],103%
